In PubChem BioAssay (NCI) one finds TGI data, which are given here for seven molecules.

Some test systems named below: MCF7 breast; SF-295 CNS; HL-60(TB) leukemia; SK-OV-3 ovarian; HOP-92 NSCLC; SK-MEL-2 melanoma; SF-268 CNS; NCI-H226 lung; UO-31 renal; RPMI-8226 leukemia; OVCAR-4 ovarian; MDA-N; RXF 393 renal; SNB-75 CNS; SN12C renal; OVCAR-5 ovarian; OVCAR-8 ovarian; CAKI-1 renal; A549 NSCLC; MDA-MB-435.
Common to all, as to assay: NCI anticancer screen, dose series, 48 h

SMILES strings stand for the structures.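 Interpolation was linear, between the two tested concentrations surrounding the appropriate level; five concentrations were tested over 48 hours in 96-well plates. TGI marks complete inhibition of growth.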

As to `CC1=NN(c2nc(N)nc(C(C)Sc3cc(Cl)c(C)cc3S(N)(=O)=O)n2)C(C)(C)C1` (stereo not drawn), the TGI in the assay with MCF7 breast, with SF-295 CNS, in the assay on HL-60(TB) leukemia, in the assay with SK-OV-3 ovarian, in the assay on HOP-92 NSCLC and in the assay on SK-MEL-2 melanoma was above 10 µM each time. In addition, the TGI in the assay with SF-268 CNS, with NCI-H226 lung, with UO-31 renal, in the assay with RPMI-8226 leukemia, with OVCAR-4 ovarian and with MDA-N was above 10 µM throughout. The TGI with RXF 393 renal, in the assay on SNB-75 CNS, with SN12C renal, with OVCAR-5 ovarian, with OVCAR-8 ovarian and in the assay with CAKI-1 renal was above 10 µM throughout. The TGI in the assay with A549 NSCLC is above 10 µM.
For the molecule `CC(=O)c1ccc(N2CCN(c3c(O)c4c(c(O)c3Cl)C(=O)C=CC4=O)CC2)cc1`, the TGI in the assay on MCF7 breast is 2.8 µM; in the assay on SF-295 CNS, 33.9 µM; in the assay with HL-60(TB) leukemia, 0.871 µM; with HOP-92 NSCLC, 5.13 µM; in the assay with SF-268 CNS it was 8.12 µM; in the assay with UO-31 renal, 22.9 µM. In addition, the TGI in the assay on RPMI-8226 leukemia amounted to 9.43 µM; with OVCAR-4 ovarian, 10.8 µM; in the assay with MDA-N it was 10.8 µM; in the assay with RXF 393 renal it was 9.44 µM; in the assay on SNB-75 CNS, 26.6 µM; in the assay on OVCAR-5 ovarian, 33 µM. For the same molecule, the TGI in the assay with OVCAR-8 ovarian amounted to 23 µM; in the assay on CAKI-1 renal, 11.8 µM; in the assay with A549 NSCLC it was 34.8 µM.
For `O=C(Nc1ccc(Cl)c(Cl)c1)C(=O)C(C1OC(=O)c2ccccc21)[N+](=O)[O-]` (stereo not drawn), the TGI in the assay with MCF7 breast, in the assay on SF-295 CNS, in the assay on SK-OV-3 ovarian, in the assay with HOP-92 NSCLC, with SK-MEL-2 melanoma and in the assay on SF-268 CNS was above 100 µM in each case. Further, the TGI in the assay on NCI-H226 lung, in the assay with UO-31 renal, in the assay on MDA-MB-435, with OVCAR-4 ovarian, in the assay on MDA-N and in the assay with RXF 393 renal was above 100 µM each time. Besides, the TGI in the assay on SNB-75 CNS, with SN12C renal, with OVCAR-5 ovarian, in the assay on OVCAR-8 ovarian, with CAKI-1 renal and in the assay on A549 NSCLC was above 100 µM throughout.
In the case of `Cc1cccc2nc3n(c12)C(=O)c1ccccc1-3`, the TGI in the assay on MCF7 breast, in the assay on SF-295 CNS, in the assay with HL-60(TB) leukemia, in the assay on SK-OV-3 ovarian, in the assay on HOP-92 NSCLC and in the assay on SK-MEL-2 melanoma was above 100 µM in each case. Besides, the TGI in the assay with SF-268 CNS, in the assay on NCI-H226 lung, in the assay with UO-31 renal, with RPMI-8226 leukemia, in the assay on OVCAR-4 ovarian and with MDA-N was above 100 µM each time. Moreover, the TGI in the assay with RXF 393 renal, in the assay with SNB-75 CNS, in the assay with SN12C renal, in the assay on OVCAR-5 ovarian, in the assay on OVCAR-8 ovarian and with CAKI-1 renal was above 100 µM throughout. Besides, in the assay with A549 NSCLC, the TGI is above 100 µM.
For `COc1ccc(C(=O)/C=C2\c3ccccc3C(=O)N2C)cc1`, the TGI was above 100 µM with MCF7 breast; above 100 µM in the assay on SF-295 CNS; above 100 µM in the assay on SK-OV-3 ovarian; 75.7 µM with HOP-92 NSCLC; above 100 µM with SK-MEL-2 melanoma; above 100 µM in the assay with SF-268 CNS. For the same molecule, the TGI with UO-31 renal was above 100 µM; in the assay on RPMI-8226 leukemia, above 100 µM; in the assay on MDA-MB-435, above 100 µM; with OVCAR-4 ovarian, above 100 µM; in the assay on MDA-N, above 100 µM; in the assay on RXF 393 renal it was 82.8 µM. In addition, the TGI in the assay with SNB-75 CNS, with SN12C renal, in the assay on OVCAR-5 ovarian, in the assay on OVCAR-8 ovarian, in the assay with CAKI-1 renal and in the assay on A549 NSCLC was above 100 µM throughout.
Turning to `O=C1C=C(c2c(-c3ccccc3)[nH]c3ccccc23)C(=O)N1c1ccccc1`, the TGI in the assay with SF-295 CNS was 25.3 µM; with HL-60(TB) leukemia it was 24.1 µM; in the assay with SK-OV-3 ovarian it was above 100 µM; with HOP-92 NSCLC, 30.6 µM; in the assay on SK-MEL-2 melanoma it was 28.4 µM; in the assay on SF-268 CNS, 21.5 µM. Besides, the TGI is 68.5 µM with NCI-H226 lung; 28.9 µM in the assay on UO-31 renal; above 100 µM with RPMI-8226 leukemia; 24.6 µM in the assay with MDA-MB-435; 15.7 µM with MDA-N; 15.2 µM with RXF 393 renal. Moreover, the TGI in the assay on SN12C renal worked out at 22.5 µM; with OVCAR-5 ovarian, 33.3 µM; with OVCAR-8 ovarian, 20.8 µM; in the assay on CAKI-1 renal, 25.7 µM; in the assay on A549 NSCLC, 46.4 µM.
Consider `CC1CC(=O)N2CCCNC2=C1C#N` (stereo not drawn), for which the TGI with MCF7 breast, with SF-295 CNS, in the assay on SK-OV-3 ovarian, with SK-MEL-2 melanoma, in the assay with SF-268 CNS and in the assay with NCI-H226 lung was above 100 µM each time. Also, the TGI in the assay on UO-31 renal, in the assay on RPMI-8226 leukemia, in the assay on MDA-MB-435, with OVCAR-4 ovarian, with MDA-N and in the assay on RXF 393 renal was above 100 µM each time. Besides, the TGI in the assay on SNB-75 CNS, in the assay with SN12C renal, in the assay on OVCAR-8 ovarian, in the assay on CAKI-1 renal and with A549 NSCLC was above 100 µM each time.
